# Where a SMILES comes first, the peptide text is derived from it.
# Legend:
# Androgen receptor [1] = biological target: T1, Androgen receptor (Rattus norvegicus, UniProt P15207); assay type: functional
# T1 sequence (P15207 whole entry): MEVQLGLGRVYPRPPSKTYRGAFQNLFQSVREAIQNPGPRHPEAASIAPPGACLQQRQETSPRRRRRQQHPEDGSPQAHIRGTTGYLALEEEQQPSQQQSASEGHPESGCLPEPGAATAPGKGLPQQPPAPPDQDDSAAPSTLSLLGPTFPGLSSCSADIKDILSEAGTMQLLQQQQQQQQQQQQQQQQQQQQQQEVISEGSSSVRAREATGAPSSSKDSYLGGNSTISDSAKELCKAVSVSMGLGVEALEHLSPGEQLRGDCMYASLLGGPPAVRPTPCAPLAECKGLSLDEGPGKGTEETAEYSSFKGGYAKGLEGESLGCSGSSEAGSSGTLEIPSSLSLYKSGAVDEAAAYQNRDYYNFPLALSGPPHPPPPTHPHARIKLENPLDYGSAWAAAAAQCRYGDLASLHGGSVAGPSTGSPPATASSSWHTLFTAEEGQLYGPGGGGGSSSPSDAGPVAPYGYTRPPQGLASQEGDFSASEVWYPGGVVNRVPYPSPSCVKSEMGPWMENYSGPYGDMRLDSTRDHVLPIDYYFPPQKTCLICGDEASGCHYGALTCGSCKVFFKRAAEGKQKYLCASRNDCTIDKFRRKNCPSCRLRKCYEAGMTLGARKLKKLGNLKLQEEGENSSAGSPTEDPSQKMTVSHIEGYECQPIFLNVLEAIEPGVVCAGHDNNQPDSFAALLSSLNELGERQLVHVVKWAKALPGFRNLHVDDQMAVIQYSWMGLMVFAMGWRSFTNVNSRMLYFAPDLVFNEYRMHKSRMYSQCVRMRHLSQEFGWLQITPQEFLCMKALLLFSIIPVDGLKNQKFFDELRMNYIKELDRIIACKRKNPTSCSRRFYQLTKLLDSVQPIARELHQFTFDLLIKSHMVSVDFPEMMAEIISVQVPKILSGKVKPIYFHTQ
# [2] = biological target: T2, Peroxisome proliferator-activated receptor gamma (Homo sapiens, UniProt P37231); assay type: functional
# T2 sequence (P37231 whole entry): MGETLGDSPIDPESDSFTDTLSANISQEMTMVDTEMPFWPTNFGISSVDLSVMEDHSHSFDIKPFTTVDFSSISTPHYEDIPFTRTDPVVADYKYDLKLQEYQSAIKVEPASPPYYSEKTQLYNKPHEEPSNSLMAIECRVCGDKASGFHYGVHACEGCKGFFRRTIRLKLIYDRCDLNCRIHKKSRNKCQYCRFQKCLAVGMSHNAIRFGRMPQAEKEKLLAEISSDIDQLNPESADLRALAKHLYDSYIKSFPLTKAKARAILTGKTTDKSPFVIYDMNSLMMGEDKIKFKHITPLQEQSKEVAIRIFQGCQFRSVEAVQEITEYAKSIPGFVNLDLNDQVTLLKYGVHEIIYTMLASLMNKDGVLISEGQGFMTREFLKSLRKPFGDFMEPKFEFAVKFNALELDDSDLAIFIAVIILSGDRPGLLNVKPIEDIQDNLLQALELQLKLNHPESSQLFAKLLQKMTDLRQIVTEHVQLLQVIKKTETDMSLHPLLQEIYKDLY
# Androgen receptor [3] = biological target: T1, Androgen receptor
# [4] = biological target: Beta-3 adrenergic receptor (Homo sapiens, UniProt P13945)
# Beta-3 adrenergic receptor, sequence (P13945 whole entry): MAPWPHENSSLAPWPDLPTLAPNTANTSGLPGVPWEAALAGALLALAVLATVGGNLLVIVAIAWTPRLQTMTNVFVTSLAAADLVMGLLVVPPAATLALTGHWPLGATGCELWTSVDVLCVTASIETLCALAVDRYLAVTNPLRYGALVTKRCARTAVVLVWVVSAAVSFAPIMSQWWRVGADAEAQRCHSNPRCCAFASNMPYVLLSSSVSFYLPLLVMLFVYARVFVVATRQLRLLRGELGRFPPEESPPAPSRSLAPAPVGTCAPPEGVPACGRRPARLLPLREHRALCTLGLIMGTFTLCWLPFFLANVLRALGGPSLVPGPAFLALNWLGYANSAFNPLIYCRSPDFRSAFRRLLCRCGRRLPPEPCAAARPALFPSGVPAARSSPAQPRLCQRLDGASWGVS
# [5] = biological target: Voltage-dependent N-type calcium channel subunit alpha-1B (Rattus norvegicus, UniProt Q02294); assay type: functional
# Voltage-dependent N-type calcium channel subunit alpha-1B, sequence (Q02294 whole entry): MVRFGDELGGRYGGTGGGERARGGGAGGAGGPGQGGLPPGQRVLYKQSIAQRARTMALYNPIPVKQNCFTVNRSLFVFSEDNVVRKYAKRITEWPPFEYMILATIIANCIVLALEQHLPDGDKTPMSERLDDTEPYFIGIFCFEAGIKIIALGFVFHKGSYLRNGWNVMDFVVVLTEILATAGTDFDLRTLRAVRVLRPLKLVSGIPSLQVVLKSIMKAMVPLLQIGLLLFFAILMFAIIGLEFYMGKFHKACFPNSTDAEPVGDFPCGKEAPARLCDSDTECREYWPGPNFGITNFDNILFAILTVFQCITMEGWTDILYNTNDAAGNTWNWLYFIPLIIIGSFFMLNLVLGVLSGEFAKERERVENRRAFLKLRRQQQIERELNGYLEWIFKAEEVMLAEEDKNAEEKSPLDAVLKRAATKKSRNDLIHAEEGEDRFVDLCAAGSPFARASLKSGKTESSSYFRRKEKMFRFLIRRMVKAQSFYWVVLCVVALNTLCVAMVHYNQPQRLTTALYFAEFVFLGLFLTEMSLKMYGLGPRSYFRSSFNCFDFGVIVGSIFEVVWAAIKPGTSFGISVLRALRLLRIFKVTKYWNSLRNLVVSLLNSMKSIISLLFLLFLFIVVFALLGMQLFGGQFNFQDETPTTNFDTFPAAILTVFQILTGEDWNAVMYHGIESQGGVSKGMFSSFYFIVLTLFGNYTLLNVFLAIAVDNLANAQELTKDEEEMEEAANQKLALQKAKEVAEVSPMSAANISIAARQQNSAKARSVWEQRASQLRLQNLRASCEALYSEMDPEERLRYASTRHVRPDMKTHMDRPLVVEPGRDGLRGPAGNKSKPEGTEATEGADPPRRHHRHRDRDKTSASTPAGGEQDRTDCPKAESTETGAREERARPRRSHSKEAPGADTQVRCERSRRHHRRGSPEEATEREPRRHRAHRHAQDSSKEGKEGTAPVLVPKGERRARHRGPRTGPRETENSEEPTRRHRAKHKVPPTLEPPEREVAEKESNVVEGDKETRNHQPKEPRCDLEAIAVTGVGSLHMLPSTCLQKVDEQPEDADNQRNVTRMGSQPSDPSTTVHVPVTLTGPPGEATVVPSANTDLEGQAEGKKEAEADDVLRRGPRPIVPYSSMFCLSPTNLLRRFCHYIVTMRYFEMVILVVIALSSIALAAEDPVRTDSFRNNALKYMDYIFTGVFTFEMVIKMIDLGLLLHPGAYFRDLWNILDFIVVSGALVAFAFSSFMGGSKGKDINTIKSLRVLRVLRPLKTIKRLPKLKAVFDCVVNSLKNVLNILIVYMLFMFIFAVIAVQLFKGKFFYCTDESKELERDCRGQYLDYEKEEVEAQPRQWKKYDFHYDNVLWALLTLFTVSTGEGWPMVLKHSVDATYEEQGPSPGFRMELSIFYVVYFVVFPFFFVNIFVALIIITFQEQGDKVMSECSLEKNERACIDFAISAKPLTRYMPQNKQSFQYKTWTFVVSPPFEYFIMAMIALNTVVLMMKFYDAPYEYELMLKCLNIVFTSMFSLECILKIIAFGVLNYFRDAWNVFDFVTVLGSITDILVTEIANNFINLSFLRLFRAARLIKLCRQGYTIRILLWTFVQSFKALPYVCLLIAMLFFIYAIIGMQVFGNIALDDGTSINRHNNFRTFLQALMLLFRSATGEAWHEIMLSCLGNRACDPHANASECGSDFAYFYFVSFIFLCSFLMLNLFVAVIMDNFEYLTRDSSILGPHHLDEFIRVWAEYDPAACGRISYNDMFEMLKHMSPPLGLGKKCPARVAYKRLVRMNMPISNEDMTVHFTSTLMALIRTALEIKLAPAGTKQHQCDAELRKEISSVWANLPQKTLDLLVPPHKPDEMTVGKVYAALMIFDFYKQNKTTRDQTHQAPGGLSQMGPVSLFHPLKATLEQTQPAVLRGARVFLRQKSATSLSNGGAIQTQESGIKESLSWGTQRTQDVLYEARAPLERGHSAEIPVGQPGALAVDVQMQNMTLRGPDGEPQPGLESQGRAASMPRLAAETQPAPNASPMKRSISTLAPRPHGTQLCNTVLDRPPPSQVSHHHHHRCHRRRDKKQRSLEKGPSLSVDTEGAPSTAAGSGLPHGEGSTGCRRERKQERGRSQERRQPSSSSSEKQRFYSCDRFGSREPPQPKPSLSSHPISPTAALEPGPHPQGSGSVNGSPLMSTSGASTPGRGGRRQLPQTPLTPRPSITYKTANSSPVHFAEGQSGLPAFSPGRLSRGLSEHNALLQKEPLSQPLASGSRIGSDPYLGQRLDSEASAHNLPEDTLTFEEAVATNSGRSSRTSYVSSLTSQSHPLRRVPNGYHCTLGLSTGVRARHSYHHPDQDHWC
# Estrogen receptor beta = Estrogen receptor beta (Homo sapiens, UniProt Q92731)
# Estrogen receptor beta, sequence (Q92731 whole entry): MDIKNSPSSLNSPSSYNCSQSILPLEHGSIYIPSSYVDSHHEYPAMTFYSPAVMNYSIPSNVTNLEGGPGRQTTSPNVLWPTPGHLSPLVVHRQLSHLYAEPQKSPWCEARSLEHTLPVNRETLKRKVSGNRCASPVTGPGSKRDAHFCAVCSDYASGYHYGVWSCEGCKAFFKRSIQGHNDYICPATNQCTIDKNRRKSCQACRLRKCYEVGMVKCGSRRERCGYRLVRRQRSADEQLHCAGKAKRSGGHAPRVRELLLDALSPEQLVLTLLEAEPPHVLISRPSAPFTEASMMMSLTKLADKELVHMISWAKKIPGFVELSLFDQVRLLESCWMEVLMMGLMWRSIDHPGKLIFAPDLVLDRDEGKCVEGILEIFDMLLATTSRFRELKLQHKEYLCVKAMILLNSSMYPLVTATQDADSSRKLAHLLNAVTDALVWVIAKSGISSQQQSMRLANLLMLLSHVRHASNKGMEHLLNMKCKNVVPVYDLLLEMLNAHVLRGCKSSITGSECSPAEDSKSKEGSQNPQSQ
# Histamine H1 receptor = Histamine H1 receptor (Homo sapiens, UniProt P35367); assay type: functional, cell-based
# Histamine H1 receptor, sequence (P35367 whole entry): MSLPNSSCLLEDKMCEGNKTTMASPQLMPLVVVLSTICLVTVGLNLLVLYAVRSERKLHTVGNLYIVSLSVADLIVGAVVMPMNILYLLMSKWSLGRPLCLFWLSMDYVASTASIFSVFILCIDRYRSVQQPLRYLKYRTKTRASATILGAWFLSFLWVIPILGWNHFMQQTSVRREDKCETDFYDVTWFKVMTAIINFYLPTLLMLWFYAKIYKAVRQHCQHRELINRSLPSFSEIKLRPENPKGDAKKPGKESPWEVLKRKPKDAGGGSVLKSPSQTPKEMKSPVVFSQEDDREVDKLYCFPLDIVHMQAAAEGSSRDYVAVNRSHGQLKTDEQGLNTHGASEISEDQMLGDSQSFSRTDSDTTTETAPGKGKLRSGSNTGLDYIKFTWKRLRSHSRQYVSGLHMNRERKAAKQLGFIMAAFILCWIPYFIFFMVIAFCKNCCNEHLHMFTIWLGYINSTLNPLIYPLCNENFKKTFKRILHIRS
# [6] = biological target: Neurotensin receptor type 1 (Homo sapiens, UniProt P30989)
# Neurotensin receptor type 1, sequence (P30989 whole entry): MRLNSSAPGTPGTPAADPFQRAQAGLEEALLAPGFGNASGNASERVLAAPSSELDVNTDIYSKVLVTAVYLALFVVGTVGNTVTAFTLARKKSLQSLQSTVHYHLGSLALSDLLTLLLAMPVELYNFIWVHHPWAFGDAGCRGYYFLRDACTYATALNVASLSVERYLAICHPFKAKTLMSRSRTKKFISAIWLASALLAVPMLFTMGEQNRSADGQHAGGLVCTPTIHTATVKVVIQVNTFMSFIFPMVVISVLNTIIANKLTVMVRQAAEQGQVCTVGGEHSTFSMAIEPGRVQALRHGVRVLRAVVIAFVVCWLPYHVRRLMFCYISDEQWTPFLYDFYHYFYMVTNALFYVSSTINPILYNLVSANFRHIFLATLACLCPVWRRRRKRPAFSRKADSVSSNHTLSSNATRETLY
# [7] = biological target: T3, 5-hydroxytryptamine receptor 1A (Homo sapiens, UniProt P08908)
# T3 sequence (P08908 whole entry): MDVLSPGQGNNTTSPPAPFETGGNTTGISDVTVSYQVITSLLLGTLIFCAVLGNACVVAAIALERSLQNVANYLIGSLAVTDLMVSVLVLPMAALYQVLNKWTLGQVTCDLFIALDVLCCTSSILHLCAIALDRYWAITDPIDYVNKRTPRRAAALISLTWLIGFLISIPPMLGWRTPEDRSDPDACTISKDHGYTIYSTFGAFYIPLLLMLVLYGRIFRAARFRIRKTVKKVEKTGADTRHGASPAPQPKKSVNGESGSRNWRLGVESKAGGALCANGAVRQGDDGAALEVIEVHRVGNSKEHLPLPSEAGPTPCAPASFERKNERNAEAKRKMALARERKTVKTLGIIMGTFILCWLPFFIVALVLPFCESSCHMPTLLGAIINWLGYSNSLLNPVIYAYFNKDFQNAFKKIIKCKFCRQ
# [8] = biological target: 5-hydroxytryptamine receptor 2A (Homo sapiens, UniProt P28223)
# 5-hydroxytryptamine receptor 2A, sequence (P28223 whole entry): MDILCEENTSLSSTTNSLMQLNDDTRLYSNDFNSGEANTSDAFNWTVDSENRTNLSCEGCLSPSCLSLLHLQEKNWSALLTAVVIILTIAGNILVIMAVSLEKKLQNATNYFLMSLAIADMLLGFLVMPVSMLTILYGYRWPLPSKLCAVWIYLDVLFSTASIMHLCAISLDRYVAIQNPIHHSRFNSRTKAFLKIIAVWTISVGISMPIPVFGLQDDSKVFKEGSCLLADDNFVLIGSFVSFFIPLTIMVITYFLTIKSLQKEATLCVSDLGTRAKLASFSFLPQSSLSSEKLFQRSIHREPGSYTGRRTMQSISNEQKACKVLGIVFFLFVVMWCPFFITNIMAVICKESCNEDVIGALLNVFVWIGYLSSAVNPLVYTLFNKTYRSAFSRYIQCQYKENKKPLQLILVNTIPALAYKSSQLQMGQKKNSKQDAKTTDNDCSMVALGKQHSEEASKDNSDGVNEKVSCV
# Substance-P receptor = Substance-P receptor (Homo sapiens, UniProt P25103)
# Substance-P receptor, sequence (P25103 whole entry): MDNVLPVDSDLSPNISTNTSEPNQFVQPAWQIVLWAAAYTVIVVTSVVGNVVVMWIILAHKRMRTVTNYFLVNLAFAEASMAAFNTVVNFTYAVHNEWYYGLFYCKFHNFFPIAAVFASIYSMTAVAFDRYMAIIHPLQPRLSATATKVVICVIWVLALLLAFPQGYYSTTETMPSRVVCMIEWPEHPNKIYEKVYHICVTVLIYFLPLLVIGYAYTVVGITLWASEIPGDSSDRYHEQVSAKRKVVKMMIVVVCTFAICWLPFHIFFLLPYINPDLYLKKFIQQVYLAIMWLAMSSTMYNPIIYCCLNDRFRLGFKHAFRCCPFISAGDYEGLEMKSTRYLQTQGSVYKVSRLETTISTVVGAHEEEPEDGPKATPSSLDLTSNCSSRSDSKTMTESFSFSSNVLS
# Further: assay procedure not described here.
compound,measurement,setting,value
COc1ccc(-n2nc(C(N)=O)c3c2C(=O)N(c2ccc(N4CCCCC4=O)cc2)CC3)cc1 [APIXABAN],AC50,Androgen receptor [1],> 30 µM
same,AC50,[2],> 30 µM
CCOC(=O)O[C@]1(C(=O)COC(=O)CC)CC[C@H]2[C@@H]3CCC4=CC(=O)C=C[C@]4(C)[C@H]3[C@@H](O)C[C@@]21C [PREDNICARBATE],AC50,Androgen receptor [3],0.71 µM
CC1NCCOC1c1ccccc1 (stereo not drawn) [PHENMETRAZINE],AC50,[4],> 30 µM
same,AC50,[5],> 10 µM
same,AC50,Estrogen receptor beta,> 30 µM
same,AC50,Histamine H1 receptor,> 30 µM
same,AC50,[6],> 30 µM
same,AC50,[7],> 10 µM
same,AC50,[8],> 10 µM
CCCO[C@H]1[C@@H]([C@@H](COCc2ccc(Cl)cc2)OCc2ccc(Cl)cc2)OC(OCC)[C@@H]1O (stereo partly drawn) [CLOBENOSIDE],AC50,Androgen receptor [1],> 30 µM
COc1ccc(C(Cl)=C(c2ccc(OC)cc2)c2ccc(OC)cc2)cc1 [CHLOROTRIANISENE],AC50,Histamine H1 receptor,> 30 µM
C[C@@H](Cc1ccccc1)N(C)Cc1ccccc1 [BENZPHETAMINE],AC50,Androgen receptor [3],> 10 µM
TEPRENONE,AC50,Androgen receptor [3],> 30 µM
same,AC50,[7],> 10 µM
CC(=O)OCC1=C(C(=O)O)N2C(=O)[C@@H](NC(=O)Cc3cccs3)[C@H]2SC1 [CEPHALOTHIN],AC50,[2],> 30 µM
CCC(=O)O[C@H](CC(=O)O)C[N+](C)(C)C [LEVOCARNITINE PROPIONATE],AC50,Androgen receptor [1],> 30 µM
same,AC50,Histamine H1 receptor,> 30 µM
same,AC50,[2],> 30 µM
O=C(O)c1nn(Cc2ccc(Cl)cc2Cl)c2ccccc12 [LONIDAMINE],AC50,Androgen receptor [1],> 30 µM
same,AC50,Histamine H1 receptor,> 30 µM
same,AC50,[2],> 30 µM
CC(C)(N)Cc1ccccc1 [PHENTERMINE],AC50,[4],> 30 µM
same,AC50,Androgen receptor [3],> 30 µM
same,AC50,[5],> 10 µM
same,AC50,Estrogen receptor beta,> 30 µM
same,AC50,[6],> 30 µM
same,AC50,[7],> 10 µM
same,AC50,[8],> 10 µM
CCN(CC)CCCN(c1ccccc1)C1Cc2ccccc2C1 [APRINDINE],AC50,Histamine H1 receptor,> 30 µM
same,AC50,[2],> 30 µM
OCCN(CCO)c1nc(N2CCCCC2)c2nc(N(CCO)CCO)nc(N3CCCCC3)c2n1 [DIPYRIDAMOLE],AC50,[4],> 30 µM
same,AC50,Androgen receptor [3],> 30 µM
same,AC50,[6],> 30 µM
N=C(N)NC(=O)Cc1c(Cl)cccc1Cl [GUANFACINE],AC50,[7],11.5 µM
CCCCCCOC(=O)NC(=N)c1ccc(NCc2nc3cc(C(=O)N(CCC(=O)OCC)c4ccccn4)ccc3n2C)cc1 [DABIGATRAN ETEXILATE],AC50,[2],> 30 µM
CC1=C(C(=O)O)N2C(=O)[C@@H](NC(=O)[C@H](N)C3=CCC=CC3)[C@H]2SC1 [CEPHRADINE],AC50,[2],> 30 µM
CN1CCCN=C1/C=C/c1cccc(O)c1 [OXANTEL],AC50,Androgen receptor [1],26 µM
CC(=O)Oc1cccc2c1C(=O)c1c(OC(C)=O)cc(C(=O)O)cc1C2=O [DIACEREIN],AC50,Androgen receptor [1],> 30 µM
CC(=O)OCC(=O)[C@@]1(O)CC[C@H]2[C@@H]3CCC4=CC(=O)CC[C@]4(C)[C@@]3(F)[C@@H](O)C[C@@]21C [FLUDROCORTISONE ACETATE],AC50,Androgen receptor [1],> 30 µM
Cc1ccc(S(=O)(=O)NC(=O)N[C@H]2[C@H]3CC[C@@](C)([C@H]2O)C3(C)C)cc1 [GLIBORNURIDE],AC50,Androgen receptor [1],> 30 µM
CCC(=O)[C@@]1(C)[C@H](C)C[C@H]2[C@@H]3CCC4=CC(=O)C=C[C@]4(C)[C@H]3[C@@H](O)C[C@@]21C [RIMEXOLONE],AC50,Androgen receptor [3],> 30 µM
Nc1cc(N2CCCCC2)nc(N)[n+]1[O-] [MINOXIDIL],AC50,Androgen receptor [3],> 30 µM
same,AC50,[7],> 10 µM
OCC(CO)N[C@H]1C[C@](O)(CO)[C@@H](O)[C@H](O)[C@H]1O [VOGLIBOSE],AC50,Androgen receptor [3],> 30 µM
C=C(c1ccccc1OCc1cccc(Cl)c1)n1ccnc1 [CROCONAZOLE],AC50,Androgen receptor [3],> 30 µM
same,AC50,[7],> 10 µM
same,AC50,[8],1.11 µM
CN(C)CCOCC(=O)NC12CC3CC(CC(C3)C1)C2 [TROMANTADINE],AC50,Androgen receptor [1],> 30 µM
COC(=O)c1ccc2c(c1)NC(=O)/C2=C(\Nc1ccc(N(C)C(=O)CN2CCN(C)CC2)cc1)c1ccccc1 [NINTEDANIB],AC50,Androgen receptor [1],> 30 µM
same,AC50,[2],4.8 µM
NS(=O)(=O)c1ccc(N2CCCCS2(=O)=O)cc1,AC50,Androgen receptor [1],> 30 µM
same,AC50,Histamine H1 receptor,> 30 µM
CC(C)CN(C[C@@H](O)[C@H](Cc1ccccc1)NC(=O)O[C@H]1CCOC1)S(=O)(=O)c1ccc(N)cc1,AC50,Androgen receptor [3],> 10 µM
CC(C(=O)O)c1ccc(C(=O)c2ccccc2)s1 (stereo not drawn) [TIAPROFENIC ACID],AC50,Androgen receptor [3],> 10 µM
CCCCC[C@H](O)CC[C@@H]1[C@H]2Cc3cccc(OCC(=O)O)c3C[C@H]2C[C@H]1O [TREPROSTINIL],AC50,Androgen receptor [1],> 30 µM
same,AC50,[2],> 30 µM
C[C@H](N)C(=O)N[C@@H](CCC(N)=O)C(=O)O [ALANYL GLUTAMINE] (H-Ala-Gln-OH),AC50,Androgen receptor [1],> 30 µM
O=C(O)c1ccc2nc(-c3cc(Cl)cc(Cl)c3)oc2c1,AC50,Androgen receptor [1],> 30 µM
Cc1nnc2n1-c1ccc(Cl)cc1C(c1ccccc1)=NC2 [ALPRAZOLAM],AC50,[4],> 30 µM
same,AC50,[5],> 10 µM
same,AC50,Estrogen receptor beta,> 30 µM
same,AC50,[6],> 30 µM
same,AC50,Substance-P receptor,> 10 µM
same,AC50,[7],> 10 µM
CS(=O)(=O)NC(=O)CCC/C=C\C[C@H]1C(=O)C[C@@H](O)[C@@H]1/C=C/[C@@H](O)COc1ccccc1 [SULPROSTONE],AC50,Histamine H1 receptor,> 30 µM
same,AC50,[2],> 30 µM
CC1Cc2ccccc2N1NC(=O)c1ccc(Cl)c(S(N)(=O)=O)c1 (stereo not drawn) [INDAPAMIDE],AC50,[5],> 10 µM
same,AC50,[7],> 10 µM
OCC(O)COc1ccc(Cl)cc1 (stereo not drawn),AC50,Androgen receptor [3],> 10 µM
CCCCCCCC(=O)CC[C@@H]1[C@@H](C/C=C\CCCC(=O)O)[C@@H](O)C[C@H]1O [UNOPROSTONE],AC50,Androgen receptor [1],> 30 µM
same,AC50,Histamine H1 receptor,> 30 µM
same,AC50,[2],> 30 µM
CCCCOC(=O)C(=O)Nc1cccc(-c2nnn[nH]2)c1 [TAZANOLAST],AC50,Androgen receptor [1],> 30 µM
CCN(CC)CC(=O)Nc1c(C)cccc1C [LIDOCAINE],AC50,Estrogen receptor beta,> 30 µM
same,AC50,[6],> 30 µM
same,AC50,Substance-P receptor,> 10 µM
CC1=C(CC(=O)O)c2cc(F)ccc2/C1=C\c1ccc([S+](C)[O-])cc1 (stereo not drawn),AC50,[4],> 30 µM
same,AC50,[5],> 10 µM
same,AC50,Estrogen receptor beta,> 30 µM
same,AC50,[6],> 30 µM
same,AC50,[7],> 10 µM
Cc1cnc(Nc2ccc(OCCN3CCCC3)cc2)nc1Nc1cccc(S(=O)(=O)NC(C)(C)C)c1 [FEDRATINIB],AC50,Androgen receptor [3],> 30 µM
same,AC50,[7],> 10 µM
same,AC50,[8],3.12 µM
CCN(CC)C(C)C(=O)c1ccccc1 (stereo not drawn) [DIETHYLPROPION],AC50,[4],> 30 µM
same,AC50,Androgen receptor [3],> 30 µM
same,AC50,[5],> 10 µM
same,AC50,[6],> 30 µM
same,AC50,[7],> 10 µM
Oc1cc(O)c2c(c1)O[C@H](c1ccc(O)c(O)c1)[C@@H](O)C2 [CIANIDANOL],AC50,[4],> 30 µM
same,AC50,[5],> 10 µM
same,AC50,Estrogen receptor beta,> 30 µM
same,AC50,Histamine H1 receptor,> 30 µM
same,AC50,[6],> 30 µM
same,AC50,[7],> 10 µM
same,AC50,[8],> 10 µM
CCN(C(C)=O)c1cccc(-c2ccnc3c(C#N)cnn23)c1 [ZALEPLON],AC50,[7],> 10 µM

# Source: ChEMBL document CHEMBL5291721, “A preclinical secondary pharmacology resource illuminates target-adverse drug reaction associations of marketed drugs” (Nat Commun, 2023)
